Measured values: article PMC5983823, “Screening of Natural Product Derivatives Identifies Two Structurally Related Flavonoids as Potent Quorum Sensing Inhibitors against Gram-Negative Bacteria” (International Journal of Molecular Sciences, 2018)

Experiments:
cancer cell lines = tested on: cancer cell lines; set-up: method as in ref 56 = [56]; 56. National Center for Biotechnology Information PubChem BioAssay Database Available online: https://pubchem.ncbi.nlm.nih.gov/bioassay/924 (accessed on 28 March 2018); details: PubChem Bioassay database ref 56; cited from earlier work
[1] = tested on: Staphylococcus aureus biofilms; set-up: method as in PMID 24071942; details: cited from earlier work
C. violaceum ATCC 31532 [2] = assay: Violacein extraction assay (QS-mediated violacein production); format: cell-based, Chromobacterium violaceum; details: Chromobacterium violaceum, ATCC31532, 24 h, read-out: Inhibition-% of violacein production
Procedure: (§1) The initial screening of compound library was conducted using two strains of C. violaceum as model bacterium, and two assays (violacein extraction and resazurin staining) in parallel as recently optimized in [26]. For the screening assays, overnight cultures of C. violaceum were diluted in LB broth supplemented with yeast extract (LBY) (0.1% w/v, Sigma Aldrich, St. Louis, MO, USA). Culture of C. violaceum CV026 was further supplemented with 0.5 µM N-(β-ketocaproyl)-L-Homoserine lactone (3-O-C6-(L)-HSL, Cayman chemicals, Ann Arbor, MI, USA) to induce the violacein production. Bacteria (10^6 CFU/mL) was exposed to compounds (400 µM) in a total volume of 200 µL in 96-microtiter well plates (Nunc, Roskilde, Denmark), and incubated at 27 °C, with shaking at 200 rpm for 24 h. DMSO was added in untreated control wells and bacteria-free wells with only LBY were included controls. Additionally, autoinducer-free wells containing only bacteria were included in C. violaceum CV026 plates. Plates were prepared in duplicates. Quercetin dihydrate (Carl Roth GmbH, Karlsruhe, Germany) at 400 µM was used as positive control in violacein extraction assay, and azithromycin (Cayman chemicals, Ann Arbor, MI, USA) at 10 µM in viability assay. Both control compounds were prepared in DMSO. DMSO concentration was 2.5% throughout the experiments.
(§2) After incubation period of 24 h, plates were centrifuged (Allegra™ X-12R Benchtop centrifuge, Beckman Coulter Inc., Fullerton, CA, USA) at 3000 rpm for 10 min to precipitate the violacein. Supernatants were discarded from the wells by pipetting, and pellets were re-suspended in 200 μL of 96% ethanol by scraping and mixing followed by centrifugation (3000 rpm, 10 min). Thereafter, 100 μL of supernatants were transferred to sterile 96-microtiter well plates, and violacein was quantified by reading the optical density at 595 nm using Varioskan Flash. Inhibition of violacein production was expressed as inhibition percentages of the untreated biofilms (Equation (1)):Inhibition-% = [(untreated control OD595 − sample OD595)/(untreated control OD595 − media control OD595)] × 100%(1) in which untreated control = C. violaceum + DMSO, media control = LBY, and sample = C. violaceum treated with a compound. Later on, violacein extraction assay was also utilized for the determination of half inhibitory concentrations of the compounds.

C. violaceum CV026 = assay: Violacein extraction assay (QS-mediated violacein production), mutant strain with exogenous autoinducer; format: cell-based, Chromobacterium violaceum; details: Chromobacterium violaceum, CV026, 24 h, read-out: Inhibition-% of violacein production
Procedure: as §1, §2

C. violaceum = tested on: C. violaceum; set-up: method as in PMID 27626397; details: cited from earlier work
C. violaceum ATCC 31532 [3] = assay: Violacein extraction assay (QS-mediated violacein production); format: cell-based; details: Chromobacterium violaceum, ATCC31532, read-out: Inhibition-% of violacein production

For O=c1cc(-c2ccccc2)oc2cc(O)c(O)cc12 [Compound 916, 6,7-dihydroxy-2-phenylchromen-4-one], the Anti-cancer activity (cancer cell lines) is given as “inhibition of cancer cell lines”, the “Anti-biofilm activity against S. aureus” value [1] is given as “preventing biofilm formation and by eradicating pre-formed biofilms” and the inhibition at 400 µM (C. violaceum ATCC 31532 [2]) is given as 102%. The inhibition at 400 µM (C. violaceum CV026) was 95.7%, the “Anti-QS activity class in earlier screening” value (C. violaceum) was “moderately active” and the inhibition at 40 µM (C. violaceum ATCC 31532 [3]) was 35.8 ± 1.1%.
